# Tests used:
# [1] = tested on: female BALB/c mice; test: Toxicity, multiple administrations for 14 days in mice; type: in vivo; conditions: female BALB/c mice
# Description: • Part I: Single administration. A total of 6 mice were used. They were randomly divided into 2 groups: the vehicle control and GEN1-284s (1000 mg/kg), dosed once by oral gavage and observed for 6 days, and changes in body weight and activities were recorded. • Part II: Multiple administrations. This experiment used a total of 6 mice. They were divided into two groups of 3: a GEN1-284s-1000 mg/kg group and a GEN1-284s-300 mg/kg group, and were intragastrically given GEN1-284s for 14 consecutive days at 200 μL each. The state and survival of the mice were observed every day, and their body weights were recorded. Two mice died 2 h after GEN1-284s-1000 mg/kg administration. The dose was changed to 600 mg/kg, and the experiment was continued.
# This experiment used a total of 6 mice. They were divided into two groups of 3: a GEN1-284s-1000 mg/kg group and a GEN1-284s-300 mg/kg group, and were intragastrically given GEN1-284s for 14 consecutive days at 200 μL each. The state and survival of the mice were observed every day, and their body weights were recorded. Two mice died 2 h after GEN1-284s-1000 mg/kg administration. The dose was changed to 600 mg/kg, and the experiment was continued.
# Each mouse was intragastrically administered GEN1-284s for 14 consecutive days in a volume of 200 μL/20 g. The state and survival of the mice were observed every day, and their body weights were recorded. Two mice died 2 h after GEN1-284s-1000 mg/kg administration. The dose was changed to 600 mg/kg, and the experiment was continued.
# Changes in body weight and survival of the mice were observed during 6 days after the single administration, and changes in body weight and the survival of the mice were observed during 14 consecutive days of high-dose GEN1-284s administration.
# [2] = tested on: collagen-induced arthritis (CIA) mouse model; test: Mouse CIA model, repeated for dose exploration (10, 30, 50 mg/kg)
# Description: Testing was repeated for dose exploration
# The above method was used.
# [3] = 300 mg/kg intragastric for 14 consecutive days
# [4] = CIA mice, GEN1-284s 10, 30 and 50 mg/kg qd po
structure (smiles),measurement,setting,value
"O=C(Cc1ccc2ncccc2c1)N1CCC(n2c(=O)n(COP(=O)([O-])[O-])c3cccc(C(F)(F)F)c32)CC1.[Na+].[Na+] [GEN1-284 salt, (2-Oxo-3-(1-(2-(quinolin-6-yl)acetyl)piperidin-4-yl)-4-(trifluoromethyl)-2,3-dihydro-1H-benzo[d]imidazol-1-yl)methyl disodium phosphate]",Change in body weight,[1]; [3],no significant change in body weight
same,Survival,[1]; [3],did not affect the survival of the mice
same,Number of mice that died,"[1]; 600 mg/kg group, Day 4",1 mouse
same,Number of mice that died 2 h after administration,"[1]; 1000 mg/kg intragastric, day 1, group of 3",2 mice
same,Time within which all mice died,[1]; continuous administration of 600 mg/kg,≤ 5 days
same,Effect on the score of arthritis,[2]; [4],consistently and significantly inhibit the score of arthritis
same,Score of arthritis compared with the tofacitinib positive group,[2]; [4],no significant difference from the tofacitinib positive group
same,Tolerance,[2]; [4],good tolerance
same,Significance of clinical score vs. Vehicle group (Two-way ANOVA),"[2]; CIA mice, GEN1-284s 10 mpk, Day 35",ns
same,Significance of clinical score vs. Vehicle group (Two-way ANOVA),"[2]; CIA mice, GEN1-284s 10 mpk, Day 38",ns
same,Significance of clinical score vs. Vehicle group (Two-way ANOVA),"[2]; CIA mice, GEN1-284s 10 mpk, Day 40",ns
same,Significance of clinical score vs. Vehicle group (Two-way ANOVA),"[2]; CIA mice, GEN1-284s 10 mpk, Day 42",* (*P < 0.05)
same,Significance of clinical score vs. Vehicle group (Two-way ANOVA),"[2]; CIA mice, GEN1-284s 30 mpk, Day 35",ns
same,Significance of clinical score vs. Vehicle group (Two-way ANOVA),"[2]; CIA mice, GEN1-284s 30 mpk, Day 38",** (**P < 0.01)
same,Significance of clinical score vs. Vehicle group (Two-way ANOVA),"[2]; CIA mice, GEN1-284s 30 mpk, Day 40",* (*P < 0.05)
same,Significance of clinical score vs. Vehicle group (Two-way ANOVA),"[2]; CIA mice, GEN1-284s 30 mpk, Day 42",* (*P < 0.05)
same,Significance of clinical score vs. Vehicle group (Two-way ANOVA),"[2]; CIA mice, GEN1-284s 50 mpk, Day 35",* (*P < 0.05)
same,Significance of clinical score vs. Vehicle group (Two-way ANOVA),"[2]; CIA mice, GEN1-284s 50 mpk, Day 38",** (**P < 0.01)
same,Significance of clinical score vs. Vehicle group (Two-way ANOVA),"[2]; CIA mice, GEN1-284s 50 mpk, Day 40",** (**P < 0.01)
same,Significance of clinical score vs. Vehicle group (Two-way ANOVA),"[2]; CIA mice, GEN1-284s 50 mpk, Day 42",** (**P < 0.01)
same,"Changes in body weight, Mean ± SEM","[2]; G3 GEN1-284s 10 mg/kg, Day 21",20.64 ± 0.17
same,"Clinical scores, Mean ± SEM","[2]; G3 GEN1-284s 10 mg/kg, Day 21",0.0 ± 0.00
same,"Changes in body weight, Mean ± SEM","[2]; G3 GEN1-284s 10 mg/kg, Day 24",20.40 ± 0.28
same,"Clinical scores, Mean ± SEM","[2]; G3 GEN1-284s 10 mg/kg, Day 24",0.0 ± 0.00
same,"Changes in body weight, Mean ± SEM","[2]; G3 GEN1-284s 10 mg/kg, Day 26",20.19 ± 0.41
same,"Clinical scores, Mean ± SEM","[2]; G3 GEN1-284s 10 mg/kg, Day 26",0.3 ± 0.16
same,"Changes in body weight, Mean ± SEM","[2]; G3 GEN1-284s 10 mg/kg, Day 28",19.34 ± 0.52
same,"Clinical scores, Mean ± SEM","[2]; G3 GEN1-284s 10 mg/kg, Day 28",0.6 ± 0.18
same,"Changes in body weight, Mean ± SEM","[2]; G3 GEN1-284s 10 mg/kg, Day 31",18.89 ± 0.44
same,"Clinical scores, Mean ± SEM","[2]; G3 GEN1-284s 10 mg/kg, Day 31",2.5 ± 0.57
same,"Changes in body weight, Mean ± SEM","[2]; G3 GEN1-284s 10 mg/kg, Day 33",18.65 ± 0.48
same,"Clinical scores, Mean ± SEM","[2]; G3 GEN1-284s 10 mg/kg, Day 33",4.1 ± 0.99
same,"Changes in body weight, Mean ± SEM","[2]; G3 GEN1-284s 10 mg/kg, Day 35",19.04 ± 0.47
same,"Clinical scores, Mean ± SEM","[2]; G3 GEN1-284s 10 mg/kg, Day 35",5.6 ± 1.29
same,"Changes in body weight, Mean ± SEM","[2]; G3 GEN1-284s 10 mg/kg, Day 38",19.54 ± 0.38
same,"Clinical scores, Mean ± SEM","[2]; G3 GEN1-284s 10 mg/kg, Day 38",6.9 ± 1.55
same,"Changes in body weight, Mean ± SEM","[2]; G3 GEN1-284s 10 mg/kg, Day 40",19.85 ± 0.28
same,"Clinical scores, Mean ± SEM","[2]; G3 GEN1-284s 10 mg/kg, Day 40",7.5 ± 1.69
same,"Changes in body weight, Mean ± SEM","[2]; G3 GEN1-284s 10 mg/kg, Day 42",19.90 ± 0.31
same,"Clinical scores, Mean ± SEM","[2]; G3 GEN1-284s 10 mg/kg, Day 42",7.9 ± 1.79
same,"Clinical scores: significance vs. solvent control group, two-way ANOVA","[2]; G3 GEN1-284s 10 mg/kg, Day 42",* (* p <0.05)
same,"Changes in body weight, Mean ± SEM","[2]; G4 GEN1-284s 30 mg/kg, Day 21",20.25 ± 0.34
same,"Clinical scores, Mean ± SEM","[2]; G4 GEN1-284s 30 mg/kg, Day 21",0.0 ± 0.00
same,"Changes in body weight, Mean ± SEM","[2]; G4 GEN1-284s 30 mg/kg, Day 24",19.74 ± 0.33
same,"Clinical scores, Mean ± SEM","[2]; G4 GEN1-284s 30 mg/kg, Day 24",0.0 ± 0.00
same,"Changes in body weight, Mean ± SEM","[2]; G4 GEN1-284s 30 mg/kg, Day 26",19.79 ± 0.34
same,"Clinical scores, Mean ± SEM","[2]; G4 GEN1-284s 30 mg/kg, Day 26",0.3 ± 0.16
same,"Changes in body weight, Mean ± SEM","[2]; G4 GEN1-284s 30 mg/kg, Day 28",19.48 ± 0.54
same,"Clinical scores, Mean ± SEM","[2]; G4 GEN1-284s 30 mg/kg, Day 28",0.6 ± 0.18
same,"Changes in body weight, Mean ± SEM","[2]; G4 GEN1-284s 30 mg/kg, Day 31",19.20 ± 0.56
same,"Clinical scores, Mean ± SEM","[2]; G4 GEN1-284s 30 mg/kg, Day 31",2.1 ± 0.69
same,"Changes in body weight, Mean ± SEM","[2]; G4 GEN1-284s 30 mg/kg, Day 33",19.50 ± 0.61
same,"Clinical scores, Mean ± SEM","[2]; G4 GEN1-284s 30 mg/kg, Day 33",3.6 ± 1.13
same,"Changes in body weight, Mean ± SEM","[2]; G4 GEN1-284s 30 mg/kg, Day 35",19.68 ± 0.61
same,"Clinical scores, Mean ± SEM","[2]; G4 GEN1-284s 30 mg/kg, Day 35",5.1 ± 1.25
same,"Changes in body weight, Mean ± SEM","[2]; G4 GEN1-284s 30 mg/kg, Day 38",19.46 ± 0.56
same,"Clinical scores, Mean ± SEM","[2]; G4 GEN1-284s 30 mg/kg, Day 38",6.0 ± 1.40
same,"Clinical scores: significance vs. solvent control group, two-way ANOVA","[2]; G4 GEN1-284s 30 mg/kg, Day 38",** (** p < 0.01)
same,"Changes in body weight, Mean ± SEM","[2]; G4 GEN1-284s 30 mg/kg, Day 40",20.06 ± 0.53
same,"Clinical scores, Mean ± SEM","[2]; G4 GEN1-284s 30 mg/kg, Day 40",6.9 ± 1.53
same,"Clinical scores: significance vs. solvent control group, two-way ANOVA","[2]; G4 GEN1-284s 30 mg/kg, Day 40",* (* p <0.05)
same,"Changes in body weight, Mean ± SEM","[2]; G4 GEN1-284s 30 mg/kg, Day 42",19.78 ± 0.44
same,"Clinical scores, Mean ± SEM","[2]; G4 GEN1-284s 30 mg/kg, Day 42",8.1 ± 1.26
same,"Clinical scores: significance vs. solvent control group, two-way ANOVA","[2]; G4 GEN1-284s 30 mg/kg, Day 42",* (* p <0.05)
same,"Changes in body weight, Mean ± SEM","[2]; G5 GEN1-284s 50 mg/kg, Day 21",20.44 ± 0.30
same,"Clinical scores, Mean ± SEM","[2]; G5 GEN1-284s 50 mg/kg, Day 21",0.0 ± 0.00
same,"Changes in body weight, Mean ± SEM","[2]; G5 GEN1-284s 50 mg/kg, Day 24",19.66 ± 0.23
same,"Clinical scores, Mean ± SEM","[2]; G5 GEN1-284s 50 mg/kg, Day 24",0.0 ± 0.00
same,"Changes in body weight, Mean ± SEM","[2]; G5 GEN1-284s 50 mg/kg, Day 26",19.70 ± 0.26
same,"Clinical scores, Mean ± SEM","[2]; G5 GEN1-284s 50 mg/kg, Day 26",0.4 ± 0.18
same,"Changes in body weight, Mean ± SEM","[2]; G5 GEN1-284s 50 mg/kg, Day 28",19.60 ± 0.43
same,"Clinical scores, Mean ± SEM","[2]; G5 GEN1-284s 50 mg/kg, Day 28",0.6 ± 0.18
same,"Changes in body weight, Mean ± SEM","[2]; G5 GEN1-284s 50 mg/kg, Day 31",18.88 ± 0.52
same,"Clinical scores, Mean ± SEM","[2]; G5 GEN1-284s 50 mg/kg, Day 31",1.9 ± 0.67
same,"Changes in body weight, Mean ± SEM","[2]; G5 GEN1-284s 50 mg/kg, Day 33",18.91 ± 0.59
same,"Clinical scores, Mean ± SEM","[2]; G5 GEN1-284s 50 mg/kg, Day 33",3.4 ± 1.15
same,"Changes in body weight, Mean ± SEM","[2]; G5 GEN1-284s 50 mg/kg, Day 35",19.09 ± 0.53
same,"Clinical scores, Mean ± SEM","[2]; G5 GEN1-284s 50 mg/kg, Day 35",4.8 ± 1.36
same,"Clinical scores: significance vs. solvent control group, two-way ANOVA","[2]; G5 GEN1-284s 50 mg/kg, Day 35",* (* p <0.05)
same,"Changes in body weight, Mean ± SEM","[2]; G5 GEN1-284s 50 mg/kg, Day 38",19.10 ± 0.52
same,"Clinical scores, Mean ± SEM","[2]; G5 GEN1-284s 50 mg/kg, Day 38",5.9 ± 1.54
same,"Clinical scores: significance vs. solvent control group, two-way ANOVA","[2]; G5 GEN1-284s 50 mg/kg, Day 38",** (** p < 0.01)
same,"Changes in body weight, Mean ± SEM","[2]; G5 GEN1-284s 50 mg/kg, Day 40",19.31 ± 0.43
same,"Clinical scores, Mean ± SEM","[2]; G5 GEN1-284s 50 mg/kg, Day 40",6.6 ± 1.60
same,"Clinical scores: significance vs. solvent control group, two-way ANOVA","[2]; G5 GEN1-284s 50 mg/kg, Day 40",** (** p < 0.01)
same,"Changes in body weight, Mean ± SEM","[2]; G5 GEN1-284s 50 mg/kg, Day 42",19.39 ± 0.39
same,"Clinical scores, Mean ± SEM","[2]; G5 GEN1-284s 50 mg/kg, Day 42",6.9 ± 1.55
same,"Clinical scores: significance vs. solvent control group, two-way ANOVA","[2]; G5 GEN1-284s 50 mg/kg, Day 42",** (** p < 0.01)

# — US20240391940A1, “FUSED RING-CONTAINING COMPOUND, APPLICATION THEREOF, AND COMPOSITION CONTAINING SAME” (GenEros Biopharma Ltd., priority 2020, published 2024)
